# From US9737077B2, “Method for controlling sexuality of hop” (priority 2011, dated 2017)
# “Also recorded” adds a separate entry of the source. Like-named read-outs stand apart in the source and are kept apart here.
# What was measured:
# [1] = system: hop variety Kirin No. 2 (female plant); assay: Forming a male flower on a female plant bred in a greenhouse (Part 3), different chemicals
# Experimental: An over-wintering plant or strain of the hop variety “Kirin No. 2” was cultivated in the same manner as in Example 2.
# Silver thiosulfate (STS) was prepared by mixing sodium thiosulfate pentahydrate and silver nitrate in a molar ratio of 8:1. An area to which water was applied was arranged as a control area.
# Flower buds were observed from the beginning of July and the sexuality was determined from the mid-July.
# [2] = system: female plant of Momordica dioica; settings: Non Patent Literature 7; cited from earlier work
# Cannabis sativa = settings: cited from earlier work
# hop female plant = settings: spraying 500 ppm (Non Patent Literature 1); cited from earlier work
molecule,measurement,setting,value
O=[N+]([O-])[O-].[Ag+] [silver nitrate],flower sexuality observed,"[1]; 8 mM, leaf application 4 times about every 10 days, greenhouse",the female flowers were predominantly observed but the male flowers were observed in part; also recorded: female flowers and male flowers
same,flower sexuality observed,"[1]; 16 mM, leaf application 4 times about every 10 days, greenhouse",male flowers were observed; also recorded: male flowers formed
same,flower sexuality observed,"[1]; 32 mM, leaf application 4 times about every 10 days, greenhouse",male flowers were observed; also recorded: male flowers formed
same,condition of applied leaves and growth,"[1]; all treated areas (all concentrations applied), greenhouse",the applied leaves were partially browned but continued growing
same,flower formed on female plant,[2],a hermaphrodite flower is formed
same,flowers formed on main and lateral branches,Cannabis sativa; applied to a growing shoot tip (Non Patent Literature 8),"an intersex flower, an incomplete male flower with few stamens or a complete male flower, together with female flowers, were formed"
"CC(Sc1ccccc1Cl)C(=O)[O-].[Na+] (stereo not drawn) [α (2-chlorophenylthio)propionic acid, sodium salt]",flower formed on hop female plant,hop female plant,a male flower was formed
silver thiosulfate complex [STS],condition of applied leaves and growth,[1]; in vivo,the applied leaves were partially browned but continued growing
same,flower sexuality observed,[1]; in vivo,the female flowers were predominantly observed but the male flowers were observed in part; also recorded: male flowers formed; also recorded: female flowers and male flowers
same,flowers formed on main and lateral branches,Cannabis sativa; in vivo,"an intersex flower, an incomplete male flower with few stamens or a complete male flower, together with female flowers, were formed"
